Assay results published in ChEMBL document CHEMBL1909562, “Carbazole-containing arylcarboxamides as BACE1 inhibitors” (Bioorg Med Chem Lett, 2011).

target: Beta-secretase 1 (Homo sapiens, UniProt P56817); experiment: Inhibition of BACE1 by fluorescence-based assay
Sequence (P56817 whole entry): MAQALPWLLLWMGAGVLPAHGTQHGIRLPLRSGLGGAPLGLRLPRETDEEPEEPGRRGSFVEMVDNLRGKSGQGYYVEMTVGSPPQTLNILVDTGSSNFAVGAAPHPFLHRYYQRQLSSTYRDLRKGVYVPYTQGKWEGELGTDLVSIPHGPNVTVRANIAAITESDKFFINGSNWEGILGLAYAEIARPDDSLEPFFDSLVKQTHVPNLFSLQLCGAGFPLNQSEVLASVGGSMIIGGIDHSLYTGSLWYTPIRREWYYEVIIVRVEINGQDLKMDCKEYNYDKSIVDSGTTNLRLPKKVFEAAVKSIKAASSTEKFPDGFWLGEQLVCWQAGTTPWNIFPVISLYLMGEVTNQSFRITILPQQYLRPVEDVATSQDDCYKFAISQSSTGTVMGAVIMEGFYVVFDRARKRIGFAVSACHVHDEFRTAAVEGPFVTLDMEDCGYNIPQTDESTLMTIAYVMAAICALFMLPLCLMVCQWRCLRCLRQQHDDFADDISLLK

| Compound | IC50 [µM] |
| --- | --- |
| O=C(c1ccccc1)N(CC(O)Cn1c2ccccc2c2ccccc21)c1ccccc1 (centres undefined) | > 10 |
| O=C(c1ccc(Cl)cc1)N(CC(O)Cn1c2ccccc2c2ccccc21)c1ccccc1 (centres undefined) | 4.7 |
| COc1ccc(C(=O)N(CC(O)Cn2c3ccccc3c3ccccc32)c2ccccc2)cc1 (centres undefined) | 3.8 |
| O=C(c1ccccc1)N(CC(O)Cn1c2ccccc2c2ccccc21)c1ccc(C(F)(F)F)cc1 (centres undefined) | > 10 |
| O=C(c1ccccc1)N(CC(O)Cn1c2ccccc2c2ccccc21)c1ccc([N+](=O)[O-])cc1 (centres undefined) | > 10 |
| O=C(c1ccccc1)N(CC(O)Cn1c2ccccc2c2ccccc21)c1ccc(Cl)cc1 (centres undefined) | > 10 |
| O=C(c1ccccc1)N(CC(O)Cn1c2ccccc2c2ccccc21)c1ccc(F)cc1 (centres undefined) | > 10 |
| Cc1ccc(N(CC(O)Cn2c3ccccc3c3ccccc32)C(=O)c2ccccc2)cc1 (centres undefined) | > 10 |
| O=C(c1ccccc1)N(CC(O)Cn1c2ccccc2c2ccccc21)C1CCCCC1 (centres undefined) | > 10 |
| OC(CNc1cccc2ccccc12)Cn1c2ccccc2c2ccccc21 (centres undefined) | 2.99 |

Further lines, results first:

| IC50 [µM] | Compound |
| --- | --- |
| 2.5 | O=C(c1ccc(Cl)c(Cl)c1)N(CC(O)Cn1c2ccccc2c2ccccc21)c1ccccc1 (centres undefined) |
| > 10 | O=C(c1ccccc1)N(Cc1ccccc1)CC(O)Cn1c2ccccc2c2ccccc21 (centres undefined) |
| > 10 | O=C(c1ccc(Cl)cc1)N(Cc1ccccc1)CC(O)Cn1c2ccccc2c2ccccc21 (centres undefined) |
| > 10 | COc1ccc(C(=O)N(Cc2ccccc2)CC(O)Cn2c3ccccc3c3ccccc32)cc1 (centres undefined) |
| > 10 | O=C(c1ccc(Cl)c(Cl)c1)N(Cc1ccccc1)CC(O)Cn1c2ccccc2c2ccccc21 (centres undefined) |
| > 10 | O=C(c1ccccc1)N(Cc1ccc(Cl)cc1)CC(O)Cn1c2ccccc2c2ccccc21 (centres undefined) |
| > 10 | Cc1ccc(CN(CC(O)Cn2c3ccccc3c3ccccc32)C(=O)c2ccccc2)cc1 (centres undefined) |
| > 10 | COc1ccc(CN(CC(O)Cn2c3ccccc3c3ccccc32)C(=O)c2ccccc2)cc1 (centres undefined) |
| 4.8 | O=C(c1ccccc1)N(CCc1ccccc1)CC(O)Cn1c2ccccc2c2ccccc21 (centres undefined) |
